Source: patent publication US7615210B2, “Treatment of endometriosis” (Medical Research Council, priority 2003, dated 2009)
Values joined by “and” are separate entries in the source; they are usually repeats but may differ in a detail not shown here. Identical values can stand only once.

Tested on: PK1 expression in endometrial tissue
Assay: PK1 expression in endometrial tissue incubated with progesterone, Taqman quantitative RT-PCR
Format: cell-based, human
Settings: endometrial tissue (n=5), 1 μM progesterone, 24 hours, control ethanol; mean ± SEM; p<0.05
Procedure: RNA was extracted from endometrial biopsies obtained from across the menstrual cycle (n=35) using Tri Reagent (Sigma, Poole, UK) following the Manufacturer's instructions. RNA samples were quantified and were reverse transcribed using 5.5 mmol 1^−1 MgCl2, 0.5 mmol 1^−1 of each deoxynucleotide triphosphate (dNTP), 2.5 μmol 1^−1 random hexamers, ribonuclease inhibitor (0.4 U μl^−1) and 1.25 U μl^−1 Multiscribe reverse transcriptase (all from Applied Biosystems, Warrington, UK). RNA (400 ng) was added to each reverse transcription reaction and samples were incubated for 90 minutes at 25° C., 45 minutes at 48° C. and 5 minutes at 95° C. The reaction mix for the polymerase chain reaction (PCR) consisted of 1× mastermix, ribosomal 18S forward and reverse primers, Ribosomal 18S probe (50 nmol 1^−1; all from Applied Biosystems, Warrington, UK), forward and reverse primers for PK1, PK2, PKR1 and PKR2 (300 nmol 1^−1) and their probes (200 nmol 1^−1) (all from Biosource UK, Nivelles, Belgium). The reaction mix (48 μl) was aliquoted into tubes and 2 μl cDNA was added. Duplicate 24 μl samples plus positive and negative controls were placed in a PCR plate and wells were sealed with optical caps. […] Data were analysed and processed using Sequence Detector version 1.6.3 (Applied Biosystems, Warrington, UK) according to manufacturer's instructions. […]

Compound: CC(=O)[C@H]1CC[C@H]2[C@@H]3CCC4=CC(=O)CC[C@]4(C)[C@H]3CC[C@]12C [progesterone]
- fold increase in PK1 expression compared with controls: 2.91 fold and 2.91(±0.75) fold
